Format in all cases: cell-based
In assay [1] the test system is RSV strain A2. As to the kind of experiment: RSV HEp-2 EC50 (infectious cytopathic cell protection assay). As to conditions: HEp-2 cells, RSV A2, 4 days, read-out: RSV HEp-2 EC50. The procedure:
Antiviral activity against RSV is determined using an infectious cytopathic cell protection assay in HEp-2 cells. In this assay, compounds inhibiting viral infection and/or replication produce a cytoprotective effect against the virus-induced cell killing that can be quantified using a cell viability reagent. The techniques used here are novel adaptations of methods described in published literature (Chapman et al., Antimicrob Agents Chemother. 2007, 51(9):3346-53.)
HEp-2 cells are obtained from ATCC (Manassas, VI) and maintained in MEM media supplemented with 10% fetal bovine serum and penicillin/streptomycin. Cells are passaged twice a week and kept at subconfluent stage. Commercial stock of RSV strain A2 (Advanced Biotechnologies, Columbia, MD) is titered before compound testing to determine the appropriate dilution of the virus stock that generates desirable cytopathic effect in HEp-2 cells.
For antiviral tests, HEp-2 cells are grown in large cell culture flasks to near confluency but not fully so. The compounds to be tested are prediluted in DMSO in 384-well compound dilution plates, either in an 8 or 40 sample per plate standardized dose response format. 3-fold serial dilution increments of each test compound are prepared in the plates and test samples are transferred via acoustic transfer apparatus (Echo, Labcyte) at 100 nL per well into cell culture assay 384-well plates. Each compound dilution is transferred in single or quadruplicate samples into dry assay plates, which are stored until assay is ready to go. The positive and negative controls are laid out in opposite on ends of the plate in vertical blocks (1 column).
Subsequently, an infectious mixture is prepared using an appropriate dilution of virus stock previously determined by titration with cells at a density of 50,000/ml and 20 µL/well is added to test plates w/compounds via automation (uFlow, Biotek). Each plate includes negative and positive controls (16 replicates each) to create 0% and 100% virus inhibition standards, respectively. Following the infection with RSV, testing plates are incubated for 4 days in a 37° C. cell culture incubator. After the incubation, a cell viability reagent, Cell TiterGlo (Promega, Madison, WI) is added to the assay plates, which are incubated briefly, and a luminescent readout is measured (Envision, Perkin Elmer) in all the assay plates. The RSV-induced cytopathic effect, percentage inhibition, is determined from the levels of remaining cell viability. […] Various potent anti-RSV tool compounds are used as positive controls for antiviral activity.

For assay [2], the system named is RSV A2. As to the kind of experiment: RSV NHBE EC50 (RSV A2 antiviral assay in normal human bronchial epithelial cells). As to conditions: NHBE cells, RSV A2, 4 days, read-out: RSV NHBE EC50. The procedure: Normal human bronchial epithelial (NHBE) cells were purchased from Lonza (Walkersville, MD, Cat #CC-2540) and cultured in Bronchial Epithelial Growth Media (BEGM) (Lonza, Walkersville, MD, Cat #CC-3170). The cells were passaged 1-2 times per week to maintain <80% confluency. The NHBE cells were discarded after 6 passages in culture.
To conduct the RSV A2 antiviral assay, NHBE cells were plated in 96-well plates at a density of 7,500 cells per well in BEGM and allowed to attach overnight at 37° C. Following attachment, 100 μL of cell culture media was removed and 3-fold serially diluted compound was added using a Hewlett-Packard D300 Digital Dispenser. The final concentration of DMSO was normalized to 0.05%. Following compound addition, the NHBE cells were infected by the addition of 100 μL of RSV A2 at a titer of 1×10^4.5 tissue culture infectious doses/mL in BEGM and then incubated at 37° C. for 4 days. […] The mixtures were incubated for 10 minutes at 25° C., and the luminescence signal was quantified on an Envision luminescence plate reader.

The test system of assay [3] is HRV16. As to the kind of experiment: HRV16 HELA EC50 (cytopathic effect in H1-HeLa cells). The protocol:
H1-HeLa cells, cultured in complete DMEM medium containing 10% heat-inactivated FBS and 1% Penicillin/Streptomycin, were seeded in 96 well plates at 3000 cells/well one day prior to compound dosing and infection. The antiviral activity of each compound was measured in triplicate. Compounds were added directly to the cell cultures in serial 3-fold dilutions using the HP300 digital dispenser (Hewlett Packard, Palo Alto, CA) immediately prior to infection. The plates were transferred to BSL-2 containment and the appropriate dilution of virus stock, previously determined by titration and prepared in cell culture media, was added to test plates containing cells and serially diluted compounds. Each plate included 6 wells of infected untreated cells and 6 wells of uninfected cells that served as 0% and 100% virus inhibition control, respectively. Following the infection, test plates were incubated for 96 h in a tissue culture incubator set to 33° C./5% CO2. Following incubation, the H1-HeLa cells were removed from incubation and allowed to equilibrate to 25° C. Cell viability was determined by removing 100 μL of culture medium and adding 100 μL of Cell-Titer Glo viability reagent. The mixtures were incubated on a shaker for 10 minutes at 25° C., and the luminescence signal was quantified on an Envision luminescence plate reader.

Setting [4] is: human respiratory syncytial virus, HEp-2, 96 h.
Setting [5] is: human respiratory syncytial virus, NHBE, 96 h.
[6] abbreviates: 96 h, H1-HeLa cells, 33° C., read-out: HRV16 HELA EC50.
The mark [7] stands for this setting: H1-HeLa cells, 96 h, 33° C.; read-out: HRV16 HELA EC50.
The mark [8] stands for this setting: human respiratory syncytial virus, 96 h.

Read-outs that look alike come from different tables or passages of the source. Some results are limits rather than exact numbers.

For `C[C@H](N[P@@](=O)(OC[C@@]1(C#N)O[C@@H](c2ccc3c(N)ncnn23)[C@H](O)[C@@H]1O)Oc1ccccc1)C(=O)OC1CCCCC1` (single isomer, unassigned) [Example 5], the EC50 was 2740 nM in assay [1] (setting [4]), 630 nM in assay [2] (setting [5]) and 0.654 µM in assay [3] (setting [6]).

Regarding `C[C@H](NP(=O)(OC[C@@]1(C#N)O[C@@H](c2ccc3c(N)ncnn23)[C@H](O)[C@@H]1O)Oc1ccccc1)C(=O)OC1COC1` (stereo partly drawn) [Example 44, oxetan-3-yl ((((2R,3S,4R,5S)-5-(4-aminopyrrolo[2,1-f][1,2,4]triazin-7-yl)-2-cyano-3,4-dihydroxytetrahydrofuran-2-yl)methoxy)(phenoxy)phosphoryl)-L-alaninate], the results for the EC50 in assay [1] (setting [4]), in assay [2] (setting [5]) and in assay [3] (setting [6]) were 998 nM, 1800 nM and 4.26 µM, respectively.

Regarding `C[C@H](NP(=O)(OC[C@@]1(C#N)O[C@@H](c2ccc3c(N)ncnn23)[C@H](O)[C@@H]1O)Oc1ccccc1)C(=O)O[C@@H]1CCN(C)C1` (mixture of isomers) [Example 61, (R)-1-methylpyrrolidin-3-yl ((((2R,3S,4R,5S)-5-(4-aminopyrrolo[2,1-f][1,2,4]triazin-7-yl)-2-cyano-3,4-dihydroxytetrahydrofuran-2-yl)methoxy)(phenoxy)phosphoryl)-L-alaninate], the EC50 in assay [1] (setting [4]) was 2290 nM; in assay [2] (setting [5]), not below 5000 nM; in assay [3] (setting [6]), 23.2 µM.

Turning to `COC(=O)[C@H](C)NP(=O)(OC[C@@]1(C#N)O[C@@H](c2ccc3c(N)ncnn23)[C@H](O)[C@@H]1O)Oc1ccc(C[C@H](N)C(=O)OC)cc1` (single isomer, unassigned) [Example 62], the figures for the EC50 in assay [1], in assay [2] and in assay [3] (setting [7]) were 4520 nM, more than 5000 nM and 8.57 µM, respectively.

Take `CCCCCCCCCCCCCCCC(=O)OCC(COP(=O)(O)OC[C@@]1(C#N)O[C@@H](c2ccc3c(N)ncnn23)[C@H](O)[C@@H]1O)OC(=O)CCCCCCCCCCCCCCC` (stereo partly drawn) [Example 152, 3-(((((2R,3S,4R,5S)-5-(4-aminopyrrolo[2,1-f][1,2,4]triazin-7-yl)-2-cyano-3,4-dihydroxytetrahydrofuran-2-yl)methoxy)(hydroxy)phosphoryl)oxy)propane-1,2-diyl dipalmitate]: the EC50 is more than 5000 nM in assay [1] (setting [8]), 1780 nM in assay [2] (setting [8]) and more than 5 µM in assay [3] (setting [7]).

On to `CSCCOP(=O)(N[C@@H](C)C(=O)OC(C)C)OC[C@@]1(C#N)O[C@@H](c2ccc3c(N)ncnn23)[C@H](O)[C@@H]1O` (stereo partly drawn) [Example 40, isopropyl ((((2R,3S,4R,5S)-5-(4-aminopyrrolo[2,1-f][1,2,4]triazin-7-yl)-2-cyano-3,4-dihydroxytetrahydrofuran-2-yl)methoxy)(2-(methylthio)ethoxy)phosphoryl)-L-alaninate], for which the EC50 in assay [1] (setting [8]) was 21500 nM; in assay [2] (setting [8]), not below 5000 nM; in assay [3] (setting [7]) it was more than 50 µM.

For the origin of these results see US20230295201A1 (Gilead Sciences, Inc., priority 2020, published 2023).
